Measurements taken from patent US11684599B2, “Very-long-chain polyunsaturated fatty acids, elovanoid hydroxylated derivatives, and methods of use” (Board of Supervisors of Louisiana State University and …, priority 2017, dated 2023).

Legend:
[1] = tested on: rats with middle cerebral artery occlusion (MCAo); experiment: Immunohistochemistry (NeuN, GFAP, SMI-71, IgG) after MCAo; assay type: in vivo, rat; settings: for IgG staining intensity / IgG staining in the cortex: 7 days; for IgG staining intensity: compared with CSF-treated group; for IgG immunoreactivity in subcortex / IgG immunoreactivity in whole hemisphere (total): versus the vehicle group
Method: Male Sprague-Dawley rats (Charles River Lab., Wilmington, Mass.) weighing 280-340 g were fasted overnight but allowed free access to water. Atropine sulfate (0.5 mg/kg, i.p.) was injected 10 mins before anesthesia. Anesthesia was induced with 3% isoflurane in a mixture of 70% nitrous oxide and 30% oxygen. All rats were orally intubated and mechanically ventilated. During ventilation, the animals were paralyzed with pancuronium bromide (0.6 mg/kg, i.p.). The catheters were implanted into the right femoral artery and vein for the blood sampling and infusion of drug. Serial analyses of arterial blood gases, plasma glucose, arterial blood pressure and heart beating rate were conducted before and during surgical procedure. Rectal (CMA/150 Temperature Controller, CMA/Microdialysis AB, Stockholm, Sweden) and cranial (temporalis muscle; Omega Engineering, Stamford, Conn.) temperatures were closely monitored before, during and after MCAo. Rectal temperature and body weight were monitored daily until sacrifice.
Rats underwent 2 h of right middle cerebral artery occlusion (MCAo) by an intraluminal-filament. In brief, the right common carotid artery (CCA) bifurcation was exposed through a midline neck incision and the occipital artery branches of the external carotid artery were isolated, ligated and dissected. After careful isolation of the internal carotid artery (ICA), a 3-0 monofilament coated with poly-L-lysine was advanced through the ICA to the MCA until mild resistance was felt. The neck incision was closed with a silk suture and the animals were then allowed to recover. After 2 h of MCAo, rats were re-anesthetized with the same anesthetic combination. Temperature probes were re-inserted, and intraluminal sutures were carefully removed. The animals given free access to food and water for 7 days.
Thirty minutes after suture removal, a brain infusion cannula was implanted into the right lateral ventricle for treatment administration in each rat. Rats were anesthetized with 3% isoflurane and were secured to a stereotaxic apparatus with skull leveled between bregma and lambda. A sterile stainless steel cannula (5-mm long) was implanted into the lateral ventricle using the stereotaxic coordinates (0.2 mm caudal to bregma, 2 mm lateral to midline, and 5 mm below the dura). Cannulas were removed after treatment was completed.
Elovanoids (ELV) as sodium salts (Na) or methyl esters (Me) were dissolved in artificial cerebral spinal fluid (CSF) and administered into right lateral ventricle 1 hour after 2 h of MCAo. The following ELVs were used: ELV-N32-Na, ELV-N32-Me, ELV-N34-Na and ELV-N34-Me (5 μg/[…]) or CSF (50 μl). All treatments were administered by a researcher blinded to the treatment groups.
Brain edema was measured by the differences of ipsi- and contra-lateral hemispheres. Immunohistochemical procedures were performed on the adjacent sections to identify specific vascular and neuronal elements in the ischemic core and penumbra. The following antibodies were used: rat blood-brain barrier (SMI-71, BioLegend, San Diego, Calif.) as a vascular marker; glial fibrillary acid protein (GFAP, Agilent Tech. Santa Clara, Calif.) to label reactive astrocytes; and neuron-specific nuclear protein (NeuN, Chemicon/Millipore, Billerica, Mass.) and biotinylated anti-rat immunoglobulin (IgG) antibody (BioLegend, San Diego, Calif.) to detect BBB breakdown. The number of positive cells and immunopositive vessels were counted in the cortex and striatum at the level of the central lesion (bregma level −0.3 mm). Data were expressed as numbers of positive cells and vessels per high-power microscopic field (magnification ×40).
The images of sections were obtained using confocal laser microscope (LSM510, Carl Zeiss MicroImaging, Irvine, Calif.) following specific experimental protocols. The images were acquired with dimension 212.3 μm×212.3 μm using Zen software (Carl Zeiss MicroImaging). Image analysis was conducted using ImageJ software. […]

[2] = tested on: rats with fluid percussion injury (FPI); experiment: Traumatic brain injury (fluid percussion injury), neurobehavioral score and MRI; assay type: in vivo; settings: moderate FPI; 1 μg/per rat into subdural space 1 h after TBI; days 1-14; versus CSF
Method: FIGS. 23A and 23C: delivery via an intravenous injection; FIG. 23B: delivery via subdural injection. SD rats were subjected to a moderate fluid percussion injury (FPI) model and treated (1 μg/per rat) with 32- and 34 carbon elovanoids as the methyl ester (ME) or sodium salt (Na) (ELV-N32-ME, ELV-N34-ME, ELV-32-Na-d2, ELV-N34-Alkyne) or of vehicle (cerebral spinal fluid; CSF). Treatments were delivered into subdural space at 1 h after TBI. Animals received neurobehavioral examination (normal=0, maximal deficit=12) on days 1, 2, 3, 7 or 14. […] ELV-N34-Alkyne (IV, 300 μg/per animal). All animals received neurobehavioral examination (normal=0, maximal deficit=12) on days 1, 2, 3, 7 or 14.
FIG. 34 is a schematic representation of an experimental protocol for to study the effects of traumatic brain injury through one exemplary model. Briefly, moderate TBI was administered via fluid percussion injury (FPI) to the right parieto-occipital area in male Sprague Dawley rats followed by treatment with elovanoids, behavioral testing, and ex vivo MRI histopathology.
Briefly, Sprague-Dawley rats (280-350 g) were subjected to 4.8 mm craniotomy overlying the right parietal cortex (3.8 mm posterior to bregma and 2.5 mm lateral to midline) was performed 24 hours before fluid percussion injury. A plastic adaptor with a plug was positioned over the craniotomy. […]

| Compound | IgG staining intensity [1] | IgG staining in the cortex [1] | IgG immunoreactivity in subcortex [1] | IgG immunoreactivity in whole hemisphere (total) [1] | neurologic score (normal=0, maximal deficit=12) [2] |
| --- | --- | --- | --- | --- | --- |
| CC/C=C\C[C@H](O)\C=C/C=C/C=C/[C@H](O)C/C=C\C/C=C\CCCCCCCCCCCCC(=O)[O-].[Na+] [ELV-N32-Na, sodium (14Z,17Z,20R,21E,23E,25Z,27S,29Z)-20,27-dihydroxydotriaconta-14,17,21,23,25,29-hexaenoate] | similar | – | – | – | – |
| CC/C=C\C[C@H](O)\C=C/C=C/C=C/[C@H](O)C/C=C\C/C=C\CCCCCCCCCCCCCCC(=O)OC [ELV-N34-Me, methyl (16Z,19Z,22R,23E,25E,27Z,29S,31Z)-22,29-dihydroxytetratriaconta-16,19,23,25,27,31-hexaenoate] | – | significantly less IgG staining | significantly reduced | significantly reduced | improved neurologic score |
| CC/C=C\C[C@H](O)\C=C/C=C/C=C/[C@H](O)C/C=C\C/C=C\CCCCCCCCCCCCC(=O)OC [ELV-N32-Me, methyl (14Z,17Z,20R,21E,23E,25Z,27S,29Z)-20,27-dihydroxydotriaconta-14,17,21,23,25,29-hexaenoate] | similar | – | – | – | improved neurologic score |
| CC/C=C\C[C@H](O)\C=C/C=C/C=C/[C@H](O)C/C=C\C/C=C\CCCCCCCCCCCCCCC(=O)[O-].[Na+] [ELV-N34-Na, sodium (16Z,19Z,22R,23E,25E,27Z,29S,31Z)-22,29-dihydroxytetratriaconta-16,19,23,25,27,31-hexaenoate] | – | significantly less IgG staining | significantly reduced | significantly reduced | – |
